Test results as given in patent US8524748B2, “Heteroalkyl biphenyl antagonists of prostaglandin D2 receptors” (Panmira Pharmaceuticals, LLC, priority 2008, dated 2013).

Biological target: T1, human DP2 receptor (Homo sapiens, UniProt Q9Y5Y4)
T1 construct: expressed in transfected cells; membranes prepared from them
T1 sequence (Q9Y5Y4 1-395): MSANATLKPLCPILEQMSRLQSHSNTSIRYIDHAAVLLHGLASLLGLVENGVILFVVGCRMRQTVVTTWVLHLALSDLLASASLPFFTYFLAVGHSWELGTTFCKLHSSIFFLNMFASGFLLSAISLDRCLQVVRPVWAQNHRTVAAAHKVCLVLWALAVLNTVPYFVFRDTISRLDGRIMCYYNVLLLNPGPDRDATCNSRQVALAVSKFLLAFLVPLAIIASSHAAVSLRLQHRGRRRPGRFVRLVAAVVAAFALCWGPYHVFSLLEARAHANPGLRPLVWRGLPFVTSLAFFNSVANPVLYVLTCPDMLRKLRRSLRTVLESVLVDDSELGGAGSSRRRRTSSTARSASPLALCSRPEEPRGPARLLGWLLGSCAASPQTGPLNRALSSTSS
Experiment: DP2/CRTH2 radioligand binding assay using [3H]PGD2
Settings: membranes of HEK293 cells stably expressing recombinant human DP2; 1 nM [3H]PGD2; read-out: hDP2 IC50
Method: The ability of a compound to bind to the human DP2 receptor is assessed via a radioligand binding assay using [^3H]PGD2. HEK293 cells stably expressing recombinant human DP2 are resuspended in 10 mM Hepes, 7.4 containing 1 mM DTT, lysed and centrifuged at 75,000×g to pellet the membranes. The membranes are resuspended in 10 mM Hepes, 7.4 containing 1 mM DTT and 10% glycerol to approximately 5 mg protein/ml. Membranes (2-10 μg protein/well) are incubated in 96-well plates with 1 nM [^3H]PGD2 and test compound in Assay Buffer (50 mM Hepes, 10 mM MnCl2, 1 mM EDTA, plus or minus 0.2% human serum albumin, pH 7.4) for 60 minutes at room temperature. The reactions are terminated by rapid filtration through Whatman GF/C glass fibre filter plates. The filter plates were pre-soaked in 0.33% polythylenimine for 30 minutes at room temperature then washed in Wash Buffer (50 mM Hepes, 0.5 M NaCl pH 7.4) prior to harvesting. After harvesting, the filter plates are washed 3 times with 1 ml cold Wash Buffer then dried. Scintillant is then added to the plates and the radioactivity retained on the filters is determined on a Packard TopCount (Perkin Elmer). Specific binding is determined as total radioactive binding minus non-specific binding in the presence of 10 μM PGD2. IC50s were determined using GraphPad prism analysis of drug titration curves.

IC50 | Structure (SMILES)
< 1 µM | COc1ccc(CC(=O)O)cc1-c1ccc(C(F)(F)F)cc1CSc1ccccc1 [Compound 1-1, (6-Methoxy-2′-phenylsulfanylmethyl-4′-trifluoromethyl-biphenyl-3-yl)-acetic acid]
< 1 µM | COc1ccc(CC(=O)O)cc1-c1ccc(C(F)(F)F)cc1CSCc1ccccc1 [Compound 1-2, (2′-Benzylsulfanylmethyl-6-methoxy-4′-trifluoromethyl-biphenyl-3-yl)-acetic acid]
1 to 10 µM | COc1ccc(CC(=O)O)cc1-c1ccc(C(F)(F)F)cc1CSC(C)(C)C [Compound 1-3, (2′-tert-Butylsulfanylmethyl-6-methoxy-4′-trifluoromethyl-biphenyl-3-yl)-acetic acid]
< 1 µM | COc1ccc(CC(=O)O)cc1-c1ccc(C(F)(F)F)cc1CSc1nnc(C)s1 [Compound 1-4, [6-Methoxy-2′-(5-methyl-[1,3,4]thiadiazol-2-ylsulfanylmethyl)-4′-trifluoromethyl-biphenyl-3-yl]-acetic acid]
1 to 10 µM | COc1ccc(CC(=O)O)cc1-c1ccc(C(F)(F)F)cc1CSCC(F)(F)F [Compound 1-5, [6-Methoxy-2′-(2,2,2-trifluoro-ethylsulfanylmethyl)-4′-trifluoromethyl-biphenyl-3-yl]-acetic acid]
1 to 10 µM | COc1ccc(CC(=O)O)cc1-c1ccc(C(F)(F)F)cc1COc1ccccc1 [Compound 1-6, (6-Methoxy-2′-phenoxymethyl-4′-trifluoromethyl-biphenyl-3-yl)-acetic acid]
> 10 µM | COc1ccc(CC(=O)O)cc1-c1ccc(C(F)(F)F)cc1C[S+]([O-])c1ccccc1 (centres unmarked) [Compound 1-7, (2′-Benzenesulfinylmethyl-6-methoxy-4′-trifluoromethyl-biphenyl-3-yl)-acetic acid]
> 10 µM | COc1ccc(CC(=O)O)cc1-c1ccc(C(F)(F)F)cc1C[S+]([O-])Cc1ccccc1 (centres unmarked) [Compound 1-8, (6-Methoxy-2′-phenylmethanesulfinylmethyl-4′-trifluoromethyl-biphenyl-3-yl)-acetic acid]
> 10 µM | COc1ccc(CC(=O)O)cc1-c1ccc(C(F)(F)F)cc1C[S+]([O-])C(C)(C)C (centres unmarked) [Compound 1-9, [6-Methoxy-2′-(2-methyl-propane-2-sulfinylmethyl)-4′-trifluoromethyl-biphenyl-3-yl]-acetic acid]
> 10 µM | COc1ccc(CC(=O)O)cc1-c1ccc(C(F)(F)F)cc1C[S+]([O-])c1nnc(C)s1 (centres unmarked) [Compound 1-10, [6-Methoxy-2′-(5-methyl-[1,3,4]thiadiazole-2-sulfinylmethyl)-4′-trifluoromethyl-biphenyl-3-yl]-acetic acid]
1 to 10 µM | COc1ccc(CC(=O)O)cc1-c1ccc(C(F)(F)F)cc1CS(=O)(=O)c1ccccc1 [Compound 1-11, (2′-Benzenesulfonylmethyl-6-methoxy-4′-trifluoromethyl-biphenyl-3-yl)-acetic acid]
1 to 10 µM | COc1ccc(CC(=O)O)cc1-c1ccc(C(F)(F)F)cc1CS(=O)(=O)Cc1ccccc1 [Compound 1-12, (6-Methoxy-2′-phenylmethanesulfonylmethyl-4′-trifluoromethyl-biphenyl-3-yl)-acetic acid]
> 10 µM | COc1ccc(CC(=O)O)cc1-c1ccc(C(F)(F)F)cc1CS(=O)(=O)C(C)(C)C [Compound 1-13, [6-Methoxy-2′-(2-methyl-propane-2-sulfonylmethyl)-4′-trifluoromethyl-biphenyl-3-yl]-acetic acid]
1 to 10 µM | COc1ccc(CC(=O)O)cc1-c1ccc(C(F)(F)F)cc1CS(=O)(=O)c1nnc(C)s1 [Compound 1-14, [6-Methoxy-2′-(5-methyl-[1,3,4]thiadiazole-2-sulfonylmethyl)-4′-trifluoromethyl-biphenyl-3-yl]-acetic acid]
1 to 10 µM | CCN(Cc1ccccc1)C(=O)OCc1cc(C(F)(F)F)ccc1-c1cc(CC(=O)O)ccc1OC [Compound 1-15, {2′-[(Benzyl-ethyl-carbamoyloxy)-methyl]-6-methoxy-4′-trifluoromethyl-biphenyl-3-yl}-acetic acid]
< 1 µM | CCN(Cc1ccccc1)C(=O)OCc1cc(C(F)(F)F)ccc1-c1cc(CC(=O)O)ccc1F [Compound 1-16, {2′-[(Benzyl-ethyl-carbamoyloxy)-methyl]-6-fluoro-4′-trifluoromethyl-biphenyl-3-yl}-acetic acid]
< 1 µM | O=C(O)CCn1c2c(c3ccccc31)C[C@H](NS(=O)(=O)c1ccc(F)cc1)CC2 [Ramatroban, reference compound]
